This is an account of results in EP1043318A1 (priority 1997, dated 1999).

In the assay the test system is M. tuberculosis 16R. Type of assay: cell-based. As to conditions: strain resistant to control preparations; concentration of the preparation 50.0 g/l (table title); incubated 30 days.
As to `CC[C@@H](CO)NCCN[C@@H](CC)CO` [Ethambutol], the “M. tuberculosis 16R growth” value was “growth”.

For the compound `NNC(=O)c1ccncc1` [Isoniazid], the “M. tuberculosis 16R growth” value is “growth”.

For `[H]/N=C(/N)N[C@H]1[C@H](O)[C@@H](O)[C@H](O[C@@H]2O[C@@H](C)[C@](O)(C=O)[C@H]2O[C@@H]2O[C@@H](CO)[C@H](O)[C@@H](O)[C@@H]2NC)[C@@H](N/C(N)=N\[H])[C@@H]1O` [Streptomycin], the “M. tuberculosis 16R growth” value is on record as “growth”.

With `O=C1NC(=S)NC(=O)C1C(c1ccc([N+](=O)[O-])cc1)C1C(=O)NC(=S)NC1=O` [X, 5,5'-(p-nitrobenzylidene)bis (2-thiobarbituric) acid], the “M. tuberculosis 16R growth” value is given as “complete suppression of growth”.
